Measured values from ChEMBL document CHEMBL1201862, “PubChem BioAssay data set” (2004).
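Results reflect a 48-hour exposure of cells in 96-well plates to compound at five concentrations. GI50 marks 50% less growth.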 Activity calls are given as the source filed them. No stated cut-off is given here; in the data, active = GI50 up to about 1.1 µM and inactive = higher.

Columns and labels:
Experiment in all cases: growth of human tumour cells (NCI), 48 h
[1] = tested on: UO-31
[2] = tested on: TK-10
[3] = tested on: OVCAR-5
[4] = tested on: OVCAR-4
[5] = tested on: SNB-75
[6] = tested on: HOP-92
[7] = tested on: SF-268
[8] = tested on: SNB-19
[9] = tested on: U-251
[10] = tested on: ACHN
[11] = tested on: SW-620
[12] = tested on: EKVX
[13] = tested on: DU-145
[14] = tested on: SK-OV-3
[15] = tested on: NCI-H460
[16] = tested on: NCI/ADR-RES
[17] = tested on: COLO 205
[18] = tested on: IGROV-1
[19] = tested on: PC-3
[20] = tested on: HOP-62

Row | SMILES | GI50 [1] | GI50 [2] | GI50 [3] | GI50 [4] | GI50 [5] | GI50 [6] | GI50 [7] | GI50 [8] | GI50 [9] | GI50 [10] | GI50 [11] | GI50 [12] | GI50 [13] | GI50 [14] | GI50 [15] | GI50 [16] | GI50 [17] | GI50 [18] | GI50 [19] | GI50 [20]
1 | CN(C)/C=N/Cc1ccc2c(c1)OCO2 | > 100 µM (inactive) | > 100 µM (inactive) | > 100 µM (inactive) | > 100 µM (inactive) | > 100 µM (inactive) | > 100 µM (inactive) | > 100 µM (inactive) | > 100 µM (inactive) | > 100 µM (inactive) | > 100 µM (inactive) | > 100 µM (inactive) | > 100 µM (inactive) | > 100 µM (inactive) | > 100 µM (inactive) | > 100 µM (inactive) | > 100 µM (inactive) | > 100 µM (inactive) | > 100 µM (inactive) | > 100 µM (inactive) | > 100 µM (inactive)
2 | CCN(CC)CCOCCOCC1(c2ccc(Cl)c(Cl)c2)CCCCC1 | 5.12 µM (inactive) | 9.38 µM (inactive) | 11.5 µM (inactive) | 12.6 µM (inactive) | 7.64 µM (inactive) | 6.14 µM (inactive) | 11.8 µM (inactive) | 13.4 µM (inactive) | 9.25 µM (inactive) | 15.2 µM (inactive) | 5.61 µM (inactive) | 8.17 µM (inactive) | 8.71 µM (inactive) | 11.6 µM (inactive) | 3.39 µM (inactive) | 11.4 µM (inactive) | 4.41 µM (inactive) | 8.43 µM (inactive) | 11.2 µM (inactive) | 7.67 µM (inactive)
3 | CC(C)(C)[Si](C)(C)OCC1OC(n2ccc(N)nc2=O)C(O[Si](C)(C)C(C)(C)C)C1O[Si](C)(C)C(C)(C)C (stereo not given) | 1.71 µM (inactive) | – | 1.63 µM (inactive) | 0.0356 µM (active) | 3.79 µM (inactive) | 2.17 µM (inactive) | 2.56 µM (inactive) | 3.24 µM (inactive) | – | 1.82 µM (inactive) | 1.58 µM (inactive) | 3.22 µM (inactive) | 9.59 µM (inactive) | 2.75 µM (inactive) | 1.9 µM (inactive) | 15.8 µM (inactive) | 3.09 µM (inactive) | 2.04 µM (inactive) | 1.74 µM (inactive) | 2.06 µM (inactive)
4 | Cc1oncc1/N=C1\C=C(O)C(=O)c2ccccc21 | 14.1 µM (inactive) | 25.1 µM (inactive) | 13.5 µM (inactive) | 3.62 µM (inactive) | 13.1 µM (inactive) | 10.4 µM (inactive) | 10.5 µM (inactive) | 16.3 µM (inactive) | 5.37 µM (inactive) | 4.82 µM (inactive) | 4.4 µM (inactive) | 14.6 µM (inactive) | 15 µM (inactive) | 15.7 µM (inactive) | 3.91 µM (inactive) | 3.85 µM (inactive) | 17 µM (inactive) | 3.57 µM (inactive) | 2.42 µM (inactive) | 17.4 µM (inactive)
5 | O=c1cc(N2CCCC2)[nH]c(=O)n1-c1ccc(F)cc1 | – | > 100 µM (inactive) | > 100 µM (inactive) | > 100 µM (inactive) | > 100 µM (inactive) | > 100 µM (inactive) | > 100 µM (inactive) | > 100 µM (inactive) | > 100 µM (inactive) | > 100 µM (inactive) | > 100 µM (inactive) | > 100 µM (inactive) | > 100 µM (inactive) | > 100 µM (inactive) | > 100 µM (inactive) | > 100 µM (inactive) | > 100 µM (inactive) | > 100 µM (inactive) | > 100 µM (inactive) | > 100 µM (inactive)
6 | CNC(=O)N(CCC#N)[C@H]1CCCC[C@@H]1N(C(=O)NC)c1ccccc1 | > 100 µM (inactive) | > 100 µM (inactive) | > 100 µM (inactive) | > 100 µM (inactive) | > 100 µM (inactive) | > 100 µM (inactive) | – | > 100 µM (inactive) | > 100 µM (inactive) | > 100 µM (inactive) | > 100 µM (inactive) | > 100 µM (inactive) | > 100 µM (inactive) | > 100 µM (inactive) | > 100 µM (inactive) | > 100 µM (inactive) | > 100 µM (inactive) | > 100 µM (inactive) | > 100 µM (inactive) | > 100 µM (inactive)
7 | N#CC12CC3=C(N=C1NC1=C(CCc4ccccc41)C2)c1ccccc1CC3 (stereo not given) | 3.45 µM (inactive) | 4.61 µM (inactive) | 4.22 µM (inactive) | 7.55 µM (inactive) | 1.64 µM (inactive) | 2.72 µM (inactive) | 3.3 µM (inactive) | 3.95 µM (inactive) | 1.58 µM (inactive) | 6.59 µM (inactive) | 0.871 µM (active) | 4.67 µM (inactive) | 3.97 µM (inactive) | 2.67 µM (inactive) | 3.06 µM (inactive) | 2.97 µM (inactive) | 1.73 µM (inactive) | 1.44 µM (inactive) | 2.12 µM (inactive) | 5.37 µM (inactive)
8 | COC[C@@H](/N=C/C(C)(C)C)C(C)C | > 100 µM (inactive) | 72.1 µM (inactive) | > 100 µM (inactive) | > 100 µM (inactive) | > 100 µM (inactive) | > 100 µM (inactive) | > 100 µM (inactive) | > 100 µM (inactive) | > 100 µM (inactive) | > 100 µM (inactive) | > 100 µM (inactive) | > 100 µM (inactive) | > 100 µM (inactive) | > 100 µM (inactive) | > 100 µM (inactive) | > 100 µM (inactive) | > 100 µM (inactive) | > 100 µM (inactive) | > 100 µM (inactive) | > 100 µM (inactive)
9 | c1cncc(CC2(c3cc4ccccc4[nH]3)OCCO2)c1 | 40.6 µM (inactive) | > 100 µM (inactive) | – | > 100 µM (inactive) | > 100 µM (inactive) | > 100 µM (inactive) | > 100 µM (inactive) | > 100 µM (inactive) | > 100 µM (inactive) | > 100 µM (inactive) | > 100 µM (inactive) | – | > 100 µM (inactive) | > 100 µM (inactive) | > 100 µM (inactive) | > 100 µM (inactive) | > 100 µM (inactive) | 22.1 µM (inactive) | > 100 µM (inactive) | –
10 | C/C(=N\O)c1cccc(Nc2nc3ccccc3c3occc23)c1 | 0.0303 µM (active) | 13 µM (inactive) | 14.9 µM (inactive) | 12.4 µM (inactive) | 16.2 µM (inactive) | 5.3 µM (inactive) | 11.9 µM (inactive) | 16.9 µM (inactive) | 19.4 µM (inactive) | 10.3 µM (inactive) | – | 12.7 µM (inactive) | 13.2 µM (inactive) | 15 µM (inactive) | 4.35 µM (inactive) | 13.1 µM (inactive) | 12.9 µM (inactive) | – | 12.1 µM (inactive) | 18.3 µM (inactive)
11 | CC12OC1(C)C1C(=O)OCC1C2=O (stereo not given) | > 100 µM (inactive) | > 100 µM (inactive) | 59.4 µM (inactive) | > 100 µM (inactive) | 99.3 µM (inactive) | > 100 µM (inactive) | 37.8 µM (inactive) | 61.1 µM (inactive) | > 100 µM (inactive) | 62.1 µM (inactive) | 45.9 µM (inactive) | – | > 100 µM (inactive) | > 100 µM (inactive) | > 100 µM (inactive) | 51.3 µM (inactive) | 37.4 µM (inactive) | 32.4 µM (inactive) | 52.8 µM (inactive) | 41 µM (inactive)
